Reference: patent publication US20160090556A1, “PRODUCTS COMPRISING MALODOR REDUCTION MATERIALS” (The Procter & Gamble Company, priority 2014, published 2016)

Assay: Liquid dish neat product liquid-air partition coefficient
Assay type: physicochemical
Conditions: not given
In the case of `COC1CC2CC1C1CC(C=O)CC21` (stereo not shown) [Material 1027], the “Log of liquid dish neat product liquid-air partition coefficient (Comment Code K/L)” value (“Log … (Comment Code K/L)” below) is reported as “K (Log of liquid dish neat product liquid-air partition coefficient greater than or equal to −7)”.
For `CC1CCC2C(C2(C)C)C12COC(C)(C)OC2` (stereo not shown) [Material 1036], the “Log … (Comment Code K/L)” value was “K (Log of liquid dish neat product liquid-air partition coefficient greater than or equal to −7)”.
For `CC1C(C)(C)C2CCC3CC(C)(C)OC3C2C1(C)C` (stereo not shown) [Material 680], the “Log … (Comment Code K/L)” value was “K (Log of liquid dish neat product liquid-air partition coefficient greater than or equal to −7)”.
In the case of `C=CC(=C)CCC=C(C)CCC=C(C)C=O` [Material 613], the “Log … (Comment Code K/L)” value is reported as “K (Log of liquid dish neat product liquid-air partition coefficient greater than or equal to −7)”.
With `CC1C(C)(C)C2CCC3CC(C)(C)OC3C2C1(C)C` (stereo not shown) [Material 679] the “Log … (Comment Code K/L)” value was “K (Log of liquid dish neat product liquid-air partition coefficient greater than or equal to −7)”.
For `C=CCOC(=O)CCC1CCCCC1` [Material 746], the “Log … (Comment Code K/L)” value was “K (Log of liquid dish neat product liquid-air partition coefficient greater than or equal to −7)”.
For `CC1(O)CCC2=C(CCCC2(C)C)C1` (stereo not shown) [Material 675], the “Log … (Comment Code K/L)” value was “K (Log of liquid dish neat product liquid-air partition coefficient greater than or equal to −7)”.
With `CCC(=O)OC1CC2CC1C1CC=CC21` (stereo not shown) [Material 919] the “Log … (Comment Code K/L)” value was “K (Log of liquid dish neat product liquid-air partition coefficient greater than or equal to −7)”.
With `CCC(C)(O)CCc1ccccc1` (stereo not shown) [Material 731] the “Log … (Comment Code K/L)” value was “K (Log of liquid dish neat product liquid-air partition coefficient greater than or equal to −7)”.
In the case of `C/C(=C\C#N)CCc1ccccc1` [Material 894], the “Log … (Comment Code K/L)” value is reported as “K (Log of liquid dish neat product liquid-air partition coefficient greater than or equal to −7)”.
In the case of `C=C(C)[C@@H]1CCC2=CCC[C@@H](C)[C@]2(C)C1` [Material 1105], the “Log … (Comment Code K/L)” value is reported as “K (Log of liquid dish neat product liquid-air partition coefficient greater than or equal to −7)”.
For `C=CCCC(=O)C1=CCCC(C)(C)C1` [Material 697], the “Log … (Comment Code K/L)” value was “K (Log of liquid dish neat product liquid-air partition coefficient greater than or equal to −7)”.
With `C=C1C2CCC(C)(OCC)C1CCC2(C)C` (stereo not shown) [Material 606] the “Log … (Comment Code K/L)” value was “K (Log of liquid dish neat product liquid-air partition coefficient greater than or equal to −7)”.

Same assay, conditions: class code letter within Comment Code
With `CCCCCCCCCC/C=C\C#N` [Material 11] the “Log … (Comment Code K/L)” value was “K (Log of liquid dish neat product liquid-air partition coefficient greater than or equal to −7)”.
In the case of `C=CC(C)=CCCC(C)(C)O` [Material 42], the “Log … (Comment Code K/L)” value is reported as “K (Log of liquid dish neat product liquid-air partition coefficient greater than or equal to −7)”.
With `C=CCCCCCCCCC#N` [Material 352] the “Log … (Comment Code K/L)” value was “K (Log of liquid dish neat product liquid-air partition coefficient greater than or equal to −7)”.
With `CC(=O)c1ccc2ccccc2c1` [Material 120] the “Log … (Comment Code K/L)” value was “K (Log of liquid dish neat product liquid-air partition coefficient greater than or equal to −7)”.
In the case of `CCCCCCCC(=O)OCc1ccco1` [Material 336], the “Log … (Comment Code K/L)” value is reported as “K (Log of liquid dish neat product liquid-air partition coefficient greater than or equal to −7)”.
For `C=CCCC(=O)/C=C/C1C(C)=CCCC1(C)C` (stereo not shown) [Material 559], the “Log … (Comment Code K/L)” value was “K (Log of liquid dish neat product liquid-air partition coefficient greater than or equal to −7)”.
In the case of `CC/C=C\CCOC(=O)c1ccccc1` [Material 541], the “Log … (Comment Code K/L)” value is reported as “K (Log of liquid dish neat product liquid-air partition coefficient greater than or equal to −7)”.
For `CC(=O)OC1CC2C3C=CCC3C1C2(C)C` (stereo not shown) [Material 360], the “Log … (Comment Code K/L)” value was “K (Log of liquid dish neat product liquid-air partition coefficient greater than or equal to −7)”.
In the case of `CC1OC(C)C2Cc3ccccc3C2O1` (stereo not shown) [Material 141], the “Log … (Comment Code K/L)” value is reported as “K (Log of liquid dish neat product liquid-air partition coefficient greater than or equal to −7)”.
For `O=C1CCCCCCCCCCCCCCCO1` [Material 277], the “Log … (Comment Code K/L)” value was “K (Log of liquid dish neat product liquid-air partition coefficient greater than or equal to −7)”.
In the case of `CCCCCCCCCCCCCC(=O)OC` [Material 104], the “Log … (Comment Code K/L)” value is reported as “K (Log of liquid dish neat product liquid-air partition coefficient greater than or equal to −7)”.
For `O=C1CCC=CCCCCCCCCCC1` [Material 371], the “Log … (Comment Code K/L)” value was “K (Log of liquid dish neat product liquid-air partition coefficient greater than or equal to −7)”.
With `CCCCCCC1C(=O)CCC1C(=O)OC` (stereo not shown) [Material 450] the “Log … (Comment Code K/L)” value was “K (Log of liquid dish neat product liquid-air partition coefficient greater than or equal to −7)”.
In the case of `CC(=O)OCC=C(C)CCC=C(C)CCC=C(C)C` [Material 368], the “Log … (Comment Code K/L)” value is reported as “K (Log of liquid dish neat product liquid-air partition coefficient greater than or equal to −7)”.
With `CC1CCCCCCCCCCCCC(=O)C1` (stereo not shown) [Material 206] the “Log … (Comment Code K/L)” value was “K (Log of liquid dish neat product liquid-air partition coefficient greater than or equal to −7)”.
In the case of `CCOC(=O)C1C(CC)=CCCC1(C)C` (stereo not shown) [Material 294], the “Log … (Comment Code K/L)” value is reported as “K (Log of liquid dish neat product liquid-air partition coefficient greater than or equal to −7)”.
For `CC=C(C)C(=O)OCCC=CCC` [Material 274], the “Log … (Comment Code K/L)” value was “K (Log of liquid dish neat product liquid-air partition coefficient greater than or equal to −7)”.
For `CCC(=O)OC1CC2CCC1(C)C2(C)C` (stereo not shown) [Material 228], the “Log … (Comment Code K/L)” value was “K (Log of liquid dish neat product liquid-air partition coefficient greater than or equal to −7)”.
In the case of `CC(O)C(C)Cc1ccccc1` (stereo not shown) [Material 82], the “Log … (Comment Code K/L)” value is reported as “K (Log of liquid dish neat product liquid-air partition coefficient greater than or equal to −7)”.
With `C=CC1(C)Cc2occ(C)c2CC1C(=C)C` (stereo not shown) [Material 488] the “Log … (Comment Code K/L)” value was “K (Log of liquid dish neat product liquid-air partition coefficient greater than or equal to −7)”.
With `CCCCCC(=O)OCc1ccco1` [Material 338] the “Log … (Comment Code K/L)” value was “K (Log of liquid dish neat product liquid-air partition coefficient greater than or equal to −7)”.
For `C=C1CCCC(C)(C)C1C=CC(C)=O` (stereo not shown) [Material 324], the “Log … (Comment Code K/L)” value was “K (Log of liquid dish neat product liquid-air partition coefficient greater than or equal to −7)”.

Same assay, conditions: code letters K, L
For `CCCCCCCC1(C)OCC(C)O1` (stereo not shown) [Material 838], the “Comment Code: Log of liquid dish neat product liquid-air partition coefficient” value (from here on “Comment Code: Log”) was “K (Log of liquid dish neat product liquid-air partition coefficient greater than or equal to −7)”.
With `COC1CC2CC1C1CC(C=O)CC21` (stereo not shown) [Material 1027] the “Comment Code: Log” value was “K (Log of liquid dish neat product liquid-air partition coefficient greater than or equal to −7)”.
With `C=CCOC(=O)COC1CCCCC1` [Material 918] the “Comment Code: Log” value was “K (Log of liquid dish neat product liquid-air partition coefficient greater than or equal to −7)”.
With `CC1C(C)(C)C2CCC3CC(C)(C)OC3C2C1(C)C` (stereo not shown) [Material 680] the “Comment Code: Log” value was “K (Log of liquid dish neat product liquid-air partition coefficient greater than or equal to −7)”.
In the case of `CC(=O)OC1CC2C3C=CCC3C1C2(C)C` (stereo not shown) [Material 360], the “Comment Code: Log” value is reported as “K (Log of liquid dish neat product liquid-air partition coefficient greater than or equal to −7)”.
For `CC1OC(C)C2Cc3ccccc3C2O1` (stereo not shown) [Material 141], the “Comment Code: Log” value was “K (Log of liquid dish neat product liquid-air partition coefficient greater than or equal to −7)”.
In the case of `CC=CC(=O)C1C(C)=CCCC1(C)C` (stereo not shown) [Material 1074], the “Comment Code: Log” value is reported as “K (Log of liquid dish neat product liquid-air partition coefficient greater than or equal to −7)”.
With `CC(C)(C)c1ccc(CC=O)cc1` [Material 994] the “Comment Code: Log” value was “K (Log of liquid dish neat product liquid-air partition coefficient greater than or equal to −7)”.
In the case of `CC(C)=CCC/C(C)=C/COC=O` [Material 306], the “Comment Code: Log” value is reported as “K (Log of liquid dish neat product liquid-air partition coefficient greater than or equal to −7)”.
In the case of `CC1CCCCCCCCCCCCC(=O)C1` (stereo not shown) [Material 206], the “Comment Code: Log” value is reported as “K (Log of liquid dish neat product liquid-air partition coefficient greater than or equal to −7)”.
For `CC(=O)OC(C)(C)C1CC=C(C)CC1` (stereo not shown) [Material 687], the “Comment Code: Log” value was “K (Log of liquid dish neat product liquid-air partition coefficient greater than or equal to −7)”.
In the case of `CC1C(C)(C)C2CCC3CC(C)(C)OC3C2C1(C)C` (stereo not shown) [Material 679], the “Comment Code: Log” value is reported as “K (Log of liquid dish neat product liquid-air partition coefficient greater than or equal to −7)”.
In the case of `CCC(=O)OC1CC2CC1C1CC=CC21` (stereo not shown) [Material 919], the “Comment Code: Log” value is reported as “K (Log of liquid dish neat product liquid-air partition coefficient greater than or equal to −7)”.
With `CC(=O)OCCc1ccccc1` [Material 832] the “Comment Code: Log” value was “K (Log of liquid dish neat product liquid-air partition coefficient greater than or equal to −7)”.
In the case of `C=CC1(C)Cc2occ(C)c2CC1C(=C)C` (stereo not shown) [Material 488], the “Comment Code: Log” value is reported as “K (Log of liquid dish neat product liquid-air partition coefficient greater than or equal to −7)”.
In the case of `C=CC(C)(CCC=C(C)C)OC(C)=O` (stereo not shown) [Material 154], the “Comment Code: Log” value is reported as “K (Log of liquid dish neat product liquid-air partition coefficient greater than or equal to −7)”.
With `C[C@@H]1CC[C@H]2[C@@H]1[C@H]1[C@@H](CC[C@]2(C)O)C1(C)C` [Material 1140] the “Comment Code: Log” value was “K (Log of liquid dish neat product liquid-air partition coefficient greater than or equal to −7)”.
For `CCCc1ccc(O)c(OC)c1` [Material 440], the “Comment Code: Log” value was “K (Log of liquid dish neat product liquid-air partition coefficient greater than or equal to −7)”.
For `CCC(=O)OCCc1ccccc1` [Material 835], the “Comment Code: Log” value was “K (Log of liquid dish neat product liquid-air partition coefficient greater than or equal to −7)”.

Same assay, conditions: codes K/L of the Comment Code, Table 1
In the case of `C[C@@H]1CC[C@H]2[C@@H]1[C@H]1[C@@H](CC[C@]2(C)O)C1(C)C` [Material 1140], the “Comment Code: Log” value is reported as “K (Log of liquid dish neat product liquid-air partition coefficient greater than or equal to −7)”.
